The MIC is the lowest concentration found to suppress growth.

Each structure is given as a SMILES string. Values after ≈ are worked out from the molar mass of the structure shown.

Test in all cases: Minimum Inhibitory Concentration (MIC) by serial dilution in nutrient agar
Common to all, as to type: cell-based

Experiment [1] has as its system E. coli DC 0. Particulars: Escherichia coli, DC0, 10^4 colony forming units, overnight at 37° C. The procedure:
(§1) Minimum Inhibitory Concentration (MIC) values of compounds of the invention against E coli DC 0, K pneumoniae T767, and P aeruginosa NCTC 10662 were determined by serial dilution in a nutrient agar (from Oxoid Ltd., Basingstoke, England). The plates were inoculated with 10^4 colony forming units and incubated overnight at 37° C. The MIC values recorded in Table 1 were the lowest concentration of antibiotic to inhibit growth. Comparative data for 7α-formamido-3-(pyridiniummethyl)-7β-(thien-2-yl-acetamido)-ceph-3-em-4-carboxylate (Compound A), disclosed in European Patent Application No. 82303821.1 (Publication Number 0 071 395), are also given.

The test system of experiment [2] is K. pneumoniae T767. Particulars: Klebsiella pneumoniae, 10^4 colony forming units, overnight at 37° C. The procedure:
as §1

Experiment [3] deals with P. aeruginosa NCTC 10662. To be noted: Pseudomonas aeruginosa, NCTC10662, 10^4 colony forming units, overnight at 37° C. The procedure:
as §1

As for `O=CN[C@@]1(NC(=O)Cc2cccs2)C(=O)N2C(C(=O)[O-])=C(C[n+]3ccccc3)CS[C@@H]21` [Compound A, 7α-formamido-3-(pyridiniummethyl)-7β-(thien-2-yl-acetamido)-ceph-3-em-4-carboxylate, reference compound], the results for the MIC in experiment [1], in experiment [2] and in experiment [3] were 25 µg/mL (≈ 54.5 µM), 25 µg/mL (≈ 54.5 µM) and 50 µg/mL (≈ 109 µM), respectively.
As for `CCN1CCN(C(=O)NC(C(=O)NC2(NC=O)C(=O)N3C(C(=O)[O-])=C(C[n+]4cccc5c4CCC5)CSC32)c2ccc(O)c(O)c2)C(=O)C1=O` [Example 3, 3-(2,3-Cyclopentenopyridinium)methyl-7β-[D-2-(3,4-dihydroxyphenyl)-2-[(4-ethyl-2,3-dioxopiperazin-1-yl)carbonylamino]acetamido]-7α-formamido-ceph-3-em-4-carboxylate], the MIC in experiment [1] was 0.12 µg/mL (≈ 0.17 µM); in experiment [2], 0.12 µg/mL (≈ 0.17 µM); in experiment [3], 1 µg/mL (≈ 1.41 µM).
`CCN1CCN(C(=O)N[C@@H](C(=O)N[C@]2(NC=O)C(=O)N3C(C(=O)[O-])=C(C[n+]4ccc(C5CC5)cc4)CS[C@@H]32)c2ccccc2)C(=O)C1=O` [Example 29, 3-(4-Cyclopropylpyridinium)methyl-7β-[D-2-[(4-ethyl-2,3-dioxopiperazin-1-yl)carbonylamino]-2-phenylacetamido]-7α-formamido-ceph-3-em-4-carboxylate]: the minimum inhibitory concentration (MIC) amounted to 0.5 µg/mL (≈ 0.74 µM) in experiment [1], 1 µg/mL (≈ 1.48 µM) in experiment [2] and 8 µg/mL (≈ 11.8 µM) in experiment [3].

Source of the values: patent publication US4940702A, “Cephem compounds” (Beecham Group p.l.c., priority 1985, dated 1990).
